The values below come from patent publication EP0386076B1, “PHOSPHORYLED DERIVATIVES OF CARDIODILATINE/ANF PEPTIDES” (FORSSMANN, Wolf-Georg, Prof. Dr. med., priority 1987, dated 1993).

Ends that are not written are not given here.

Experiment [1] concerns Muskelstreifen von Kaninchenaorta. Put plainly: Relaxation of norepinephrine-precontracted rabbit aorta muscle strips in an organ bath. Also on record: species or system Neuseeland-Kaninchen.
Description: Muskelstreifen von Kaninchenaorta wurden zunächst mit einer Lösung von Norepinephrin (10⁻⁷ M) kontrahiert. Nachdem sich konstante Bedingungen eingestellt hatten, wurden die Peptide hinzugefügt (Position des Pfeils).
Die Abbildung 6 zeigt die Reaktion von Kaninchenaorta-Muskelstreifen auf die schrittweise Zugabe von nicht phosphoryliertem, phosphoryliertem und danach wieder nicht phosphoryliertem Alpha-hANaP (CDD-28). Die Verbindungen wurden jeweils so zugegeben, daß sie im Untersuchungsbad in einer Endkonzentration von 0,3 x 10⁻⁹ M vorlagen.
Aortae von Neuseeland-Kaninchen wurden präpariert. Die Muskelspannung wurde an Muskelstreifen in einem Organbad, enthaltend physiologische Kochsalzlösung, gemessen. Die Streifen wurden vorkontrahiert mit einer Lösung von 10⁻⁶ M Norepinephrin, danach bei vollständiger Relaxation. Für den Assay wurde eine weitere Kontraktion mit 10⁻⁷ M Norepinephrin ausgelöst. Nachdem konstante Kontraktionsbedingungen erreicht waren, wurden die Peptide appliziert.
Zur Kontrolle wurde nicht phosphoryliertes Alpha-hANaP unter gleichen Bedingungen inkubiert, jedoch ohne Anwesenheit von ATP. Phosphoryliertes und nicht phosphoryliertes Alpha-hANaP wurde zu den vorkontrahierten Kaninchenaorta-Muskelstreifen gegeben, so daß sie in einer Endkonzentration von 0,3 x 10⁻⁹ M vorlagen. […]
Experiment [2] relates to c-AMP-abhängiger Proteinkinase. The conditions noted are these: peptide as substrate of c-AMP-abhängiger Proteinkinase; read-out: Michaeliskonstante Km; cited from earlier work.

“phosphorylierte CDD-32: CDD-32 (Urodilatin, ANF/CDD-95-126) phosphorylated according to Beispiel 1; Formel I with R = Aminosäuren 95-98 (TAPRSLRRSSCFGGRMDRIGAQSGLGCNSFRY; ends and bridges not checked; also: phosphorylated (phosphate group), site not given here; UniProt P01160 120-151, looked up, fragment)”: in experiment [1] (Abbildung 7, phosphorylated versus non-phosphorylated form at corresponding concentration), the “relatives Relaxationsvermögen” value was “deutlich geringeres Relaxationsvermögen”. Also, in experiment [1] (Beispiel 6, tested analogously to Beispiel 5, several concentrations), the Relaxationsaktivität result is “deutlich geringere Relaxation”.

In the case of Arg¹⁰¹-Tyr¹²⁶, the Km – broadly, the concentration of substrate that gives half-maximal velocity – in experiment [2] was 0.5 µM.
